In patent publication US12692235B2, “Fused ring compound and application thereof” (WUHAN LL SCIENCE AND TECHNOLOGY DEVELOPMENT CO., LTD., priority 2019, dated 2026) one finds IC50 data, which are given here for 37 compounds.

The experiment concerns the target T1, hP2X4 (human purinergic P2X receptor subtype 4) (Homo sapiens, UniProt Q99571).
T1 sequence (Q99571 1-404 isoform Q99571-2): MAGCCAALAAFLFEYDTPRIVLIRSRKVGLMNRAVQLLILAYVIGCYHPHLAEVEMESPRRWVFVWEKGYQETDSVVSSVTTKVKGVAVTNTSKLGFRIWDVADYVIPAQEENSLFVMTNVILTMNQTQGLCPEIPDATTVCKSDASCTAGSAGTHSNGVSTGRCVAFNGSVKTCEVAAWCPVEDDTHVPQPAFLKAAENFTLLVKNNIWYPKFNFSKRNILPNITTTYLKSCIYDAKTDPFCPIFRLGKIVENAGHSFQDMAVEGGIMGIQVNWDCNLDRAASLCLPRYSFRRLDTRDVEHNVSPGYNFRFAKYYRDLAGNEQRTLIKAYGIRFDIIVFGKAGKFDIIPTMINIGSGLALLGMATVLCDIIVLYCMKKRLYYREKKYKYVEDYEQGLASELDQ
The conditions noted are these: P2X4 IC50 (nM), HEK293 cells stably expressing hP2X4; agonist BZ-ATP 2.5 μM; FLIPR calcium.
Description: Cells at 400,000 cells/mL were seeded into a 384-well plate (10,000 cells/well) 18-24 h prior to the FLIPR experiment and then incubated overnight in a cell incubator. […] Each well was added with 20 μL of 0.5×Calcium 6 fluorescent dye (Molecular Devices, R8190) and then the cells were subjected to dye-loading incubation at 37° C. for 1.5 h. Each well was added with 10 μL of respective test compound (dissolved in DMSO at a concentration of 10 mM and serially diluted with buffer) or vehicle and the mixture was equilibrated for 30 min at room temperature.
As usually defined, the IC50 is the midpoint of a concentration-inhibition curve. As to `NS(=O)(=O)c1cc(NC(=O)Cc2ccccc2Cl)cc2nc(Cl)ccc12` [Compound 57], the IC50 was 50 to 200 nM.

For `NS(=O)(=O)c1cc(NC(=O)Cc2ccccc2Cl)cc2c(Oc3ccc(F)cc3)nccc12` [Compound 31, 2-(2-chlorophenyl)-N-(1-(4-fluorophenoxy)-5-sulfamoylisoquinolin-7-yl)acetamide], the IC50 lay within 10 to 50 nM.

`CC(C)OC(=O)N1CCc2c(cc(NC(=O)Cc3ccccc3Cl)cc2S(N)(=O)=O)C1` [Compound 100, isopropyl-7-(2-(2-chlorophenyl)acetamido)-5-sulfamoyl-3,4-dihydroisoquinoline-2(1H)-carboxylate]: the IC50 lay in the range of 10 to 50 nM.

Consider `NS(=O)(=O)c1cc(NC(=O)Cc2ccccc2Cl)cc2ccncc12` [Compound 45, 2-(2-chlorophenyl)-N-(8-sulfamoylisoquinolin-6-yl)acetamide], for which the IC50 was in the range of 50 to 200 nM.

Regarding `COc1ccc(Oc2cc3c(S(N)(=O)=O)cc(NC(=O)Cc4ccccc4Cl)cc3cn2)cc1` [Compound 82, 2-(2-chlorophenyl)-N-(3-(4-methoxyphenoxy)-5-sulfamoylisoquinolin-7-yl)acetamide], the IC50 lay within 200 to 5000 nM.

On to `CC(C)Nc1cc2c(S(N)(=O)=O)cc(NC(=O)Cc3ccccc3Cl)cc2cn1` [Compound 83, 2-(2-chlorophenyl)-N-(3-(isopropylamino)-5-sulfamoylisoquinolin-7-yl)acetamide], for which the IC50 lay within 50 to 200 nM.

As to `NS(=O)(=O)c1cc(NC(=O)Cc2ccccc2Cl)cc2nc(N3CCCCC3)ccc12` [Compound 67, 2-(2-chlorophenyl)-N-(2-(piperidin-1-yl)-5-sulfamoylquinolin-7-yl)acetamide], the IC50 fell in the range of 200 to 5000 nM.

Regarding `COc1nccc2c(S(N)(=O)=O)cc(NC(=O)Cc3cc(F)ccc3Cl)cc12` [Compound 93, 2-(2-Chloro-5-fluorophenyl)-N-(1-methoxy-5-sulfamoylisoquinolin-7-yl)acetamide], the IC50 fell in the range of 50 to 200 nM.

Regarding `COc1ccc(Nc2ccc3c(S(N)(=O)=O)cc(NC(=O)Cc4ccccc4Cl)cc3n2)cc1` [Trifluoroacetate of compound 71, 2-(2-chlorophenyl)-N-(2-((4-methoxyphenyl)amino)-5-sulfamoylquinolin-7-yl)acetamide], the IC50 lay in the range of 200 to 5000 nM.

As for `C=CC(F)(F)N1CCc2c(cc(NC(=O)Cc3ccccc3Cl)cc2S(N)(=O)=O)C1` [Compound 119, 2-(2-chlorophenyl)-N-(2-(1,1-difluoroallyl)-5-sulfamoyl-1,2,3,4-tetrahydroisoquinolin-7-yl)acetamide], the IC50 lay in the range of 200 to 5000 nM.

Take `N#Cc1nccc2c(S(N)(=O)=O)cc(NC(=O)Cc3ccccc3Cl)cc12` [Compound 90]: the IC50 lay in the range of 50 to 200 nM.

With `NS(=O)(=O)c1cc(NC(=O)Cc2ccccc2Cl)cc2cccnc12` [Compound 37, 2-(2-chlorophenyl)-N-(8-sulfamoylquinolin-6-yl)acetamide], the IC50 was in the range of 10 to 50 nM.

For `NS(=O)(=O)c1cc(NC(=O)Cc2ccccc2Cl)cc2c(Cl)nccc12` [Compound 2, N-(1-chloro-5-sulfamoylisoquinolin-7-yl)-2-(2-chlorophenyl)acetamide], the IC50 fell in the range of 10 to 50 nM.

As to `NS(=O)(=O)c1cc(NC(=O)Cc2ccccc2Cl)cc2c1CCN(C(=O)c1ccccc1)C2` [Compound 106, N-(2-benzoyl-5-sulfamoyl-1,2,3,4-tetrahydroisoquinolin-7-yl)-2-(2-chlorophenyl)acetamide], the IC50 was in the range of 10 to 50 nM.

Take `COc1nccc2c(S(N)(=O)=O)cc(NC(=O)Cc3cccc(F)c3Cl)cc12` [Compound 97, 2-(2-chloro-3-fluorophenyl)-N-(1-methoxy-5-sulfamoylisoquinolin-7-yl)acetamide]: the IC50 lay within 50 to 200 nM.

On to `NS(=O)(=O)c1cc(NC(=O)Cc2ccccc2Cl)cc2c(C(F)(F)F)nccc12` [Compound 29, 2-(2-chlorophenyl)-N-(-5-sulfamoyl-1-(trifluoromethyl)isoquinolin-7-yl)acetamide], for which the IC50 was in the range of 10 to 50 nM.

Take `NS(=O)(=O)c1cc(NC(=O)Cc2ccccc2Cl)cc2c1CCN(C(=O)Oc1ccccc1)C2` [Compound 105, phenyl 7-(2-(2-chlorophenyl)acetamido)-5-sulfamoyl-3,4-dihydroisoquinoline-2(1H)-carboxylate]: the IC50 lay in the range of 50 to 200 nM.

`NS(=O)(=O)c1cc(NC(=O)Cc2ccccc2Cl)cc2c(Cl)cncc12` [Compound 48, N-(4-chloro-8-sulfamoylisoquinolin-6-yl)-2-(2-chlorophenyl)acetamide]: the IC50 lay in the range of 200 to 5000 nM.

With `NS(=O)(=O)c1cc(NC(=O)Cc2ccccc2Cl)cc2c1CCN(c1ccccc1)C2` [Compound 104, 2-(2-chlorophenyl)-N-(2-phenyl-5-sulfamoyl-1,2,3,4-tetrahydroisoquinolin-7-yl)acetamide], the half-maximal inhibitory concentration (IC50) fell in the range of 50 to 200 nM.

Turning to `NS(=O)(=O)c1cc(NC(=O)Cc2ccccc2Cl)cc2c(Nc3ccc(F)cc3)nccc12` [Compound 52, 2-(2-chlorophenyl)-N-(1-((4-fluorophenyl)amino)-5-sulfamoylisoquinolin-7-yl)acetamide], the IC50 was 200 to 5000 nM.

In the case of `NS(=O)(=O)c1cc(NC(=O)Cc2ccccc2Cl)cc2c(OC3CNC3)nccc12` [Compound 12, N-(1-(azetidin-3-oxy)-5-sulfamoylisoquinolin-7-yl)-2-(2-chlorophenyl)acetamide], the IC50 fell in the range of 10 to 50 nM.

`NS(=O)(=O)c1cc(NC(=O)Cc2ccccc2Cl)cc2cnc(Cl)cc12` [Compound 5, N-(3-chloro-5-sulfamoylisoquinolin-7-yl)-2-(2-chlorophenyl)acetamide]: the IC50 lay in the range of 50 to 200 nM.

For `NS(=O)(=O)c1cc(NC(=O)Cc2ccccc2Cl)cc2c1CCN(c1ccc(F)cc1)C2` [Compound 120, 2-(2-chlorophenyl)-N-(2-(4-fluorophenyl)-5-sulfamoyl-1,2,3,4-tetrahydroisoquinolin-7-yl)acetamide], the IC50 lay within 50 to 200 nM.

As for `Cc1nccc2c(S(N)(=O)=O)cc(NC(=O)Cc3ccccc3Cl)cc12` [Compound 55], the IC50 was in the range of 50 to 200 nM.

With `COc1nccc2c(S(N)(=O)=O)cc(NC(=O)Cc3ccc(F)cc3Cl)cc12` [Compound 94, 2-(2-chloro-4-fluorophenyl)-N-(1-methoxy-5-sulfamoylisoquinolin-7-yl)acetamide], the IC50 lay within 50 to 200 nM.

For the compound `NS(=O)(=O)c1cc(NC(=O)Cc2ccccc2Cl)cc2c(OC3CC3)nccc12` [Compound 10, 2-(2-chlorophenyl)-N-(1-cyclopropoxy-5-sulfamoylisoquinolin-7-yl)acetamide], the IC50 was 10 to 50 nM.

Take `COc1nccc2c(S(C)(=N)=O)cc(NC(=O)Cc3ccccc3Cl)cc12` (stereo not shown) [Compound 53, 2-(2-chlorophenyl)-N-(1-methoxy-5-(S-methylsulfonimidoyl)isoquinolin-7-yl)acetamide]: the IC50 was 200 to 5000 nM.

As to `NS(=O)(=O)c1cc(NC(=O)Cc2ccccc2Cl)cc2c(OC3CCC3)nccc12` [Compound 11, 2-(2-chlorophenyl)-N-(1-cyclobutoxy-5-sulfamoylisoquinolin-7-yl)acetamide], the IC50 lay in the range of 10 to 50 nM.

`NS(=O)(=O)c1cc(NC(=O)Cc2ccccc2Cl)cc2cc(-n3ccnc3)ncc12` [Compound 50, N-(3-(1H-imidazol-1-yl)-8-sulfamoylisoquinolin-6-yl)-2-(2-chlorophenyl)acetamide]: the IC50 lay in the range of 200 to 5000 nM.

In the case of `NS(=O)(=O)c1cc(NC(=O)Cc2ccccc2Cl)cc2c1CCN(c1cc(Cl)c(F)cn1)C2` [Compound 118, N-(2-(4-chloro-5-fluoropyridin-2-yl)-5-sulfamoyl-1,2,3,4-tetrahydroisoquinolin-7-yl)-2-(2-chlorophenyl)acetamide], the IC50 was 50 to 200 nM.

`COC(=O)N1CCc2c(cc(NC(=O)Cc3ccccc3Cl)cc2S(N)(=O)=O)C1` [Compound 99, methyl 7-(2-(2-chlorophenyl)acetamido)-5-sulfamoyl-3,4-dihydroisoquinoline-2(1H)-carboxylate]: the 50% inhibitory concentration (IC50) was 10 to 50 nM.

In the case of `CC(C)CCOc1nccc2c(S(N)(=O)=O)cc(NC(=O)Cc3ccccc3Cl)cc12` [Compound 15, 2-(2-chlorophenyl)-N-(1-(isopentyloxy)-5-sulfamoylisoquinolin-7-yl)acetamide], the IC50 lay in the range of 50 to 200 nM.

With `CC(=O)N1CC(Oc2nccc3c(S(N)(=O)=O)cc(NC(=O)Cc4ccccc4Cl)cc23)C1` [Compound 33, N-(1-((1-acetylazetidin-3-yl)oxo)-5-sulfamoylisoquinolin-7-yl)-2-(2-chlorophenyl)acetamide], the IC50 is 10 to 50 nM.

`NS(=O)(=O)c1cc(NC(=O)Cc2ccccc2Cl)cc2c1CCN(c1ccc(C(F)(F)F)cn1)C2` [Compound 117, 2-(2-chlorophenyl)-N-(5-sulfamoyl-2-(5-(trifluoromethyl)pyridin-2-yl)-1,2,3,4-tetrahydroisoquinolin-7-yl)acetamide]: the IC50 is 10 to 50 nM.

As to `NS(=O)(=O)c1cc(NC(=O)Cc2ccccc2Cl)cc2ccnnc12` [Compound 41, 2-(2-chlorophenyl)-N-(8-sulfamoylcinnolin-6-yl)acetamide], the IC50 was in the range of 50 to 200 nM.

With `NS(=O)(=O)c1cc(NC(=O)Cc2ccccc2Cl)cc2cncnc12` [Compound 40, 2-(2-chlorophenyl)-N-(8-sulfamoylquinazolin-6-yl)acetamide], the IC50 was 50 to 200 nM.

As to `NS(=O)(=O)c1cc(NC(=O)Cc2ccccc2Cl)cc2cc(Cl)ncc12` [Compound 59, N-(3-chloro-8-sulfamoylisoquinolin-6-yl)-2-(2-chlorophenyl)acetamide], the IC50 was in the range of 50 to 200 nM.
